Laboratory results: patent US20060069132A1, “Azolecarboxamide herbicides” (priority 2004, published 2006)

Experiments:
velvetleaf = test: Test B pre-/postemergence herbicide test; type: in vivo, Abutilon theophrasti
In short: (§1)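 Test chemicals in a non-phytotoxic solvent mixture with surfactant were applied preemergence to seeded species and postemergence to plants 2-18 cm tall (1- to 4-leaf stage); rice and barnyardgrass were also tested in a flooded paddy at the 2-leaf stage. Visual rating versus controls after 13-15 days in greenhouse, scale 0 (no effect) to 100 (complete control).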

morningglory = test: Test B pre-/postemergence herbicide test; type: in vivo, Ipomoea coccinea
In short: (§2)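 Formulation: non-phytotoxic solvent mix with surfactant. Timing: preemergence on seed and postemergence on 2–18 cm plants, applied concurrently. Readout after 13–15 d greenhouse: visual 0–100 control rating against controls.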

[1] = system: small flower umbrella sedge; test: Test B flooded paddy test; type: in vivo, Cyperus difformis; conditions: 1000 g ai/ha, visual rating, scale 0 to 100 (0 no effect, 100 complete control), 13 to 15 days
In short: (§3)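 Scale 0–100: zero equals no visible effect, 100 complete control, judged by eye relative to controls. Timing: 13 to 15 days in greenhouse post-treatment. Growth stage at spraying: two leaves (paddy) or one to four leaves, 2–18 cm (postemergence).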

corn = test: Test B pre-/postemergence herbicide test; type: in vivo, Zea mays
In short: as §1

large crabgrass = test: Test B pre-/postemergence herbicide test; type: in vivo, Digitaria sanguinalis
In short: as §1

wild oat = test: Test B postemergence herbicide test; type: in vivo, Avena fatua; conditions: scale 0 (no effect) to 100 (complete control)
In short: (§4)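 Postemergence plants were sprayed with formulated test chemicals at 2 to 18 cm height (1- to 4-leaf stage); paddy species were grown to the 2-leaf stage. After 13 to 15 days in a greenhouse, injury was rated visually against untreated controls on a 0–100 scale (0 = no effect, 100 = complete control).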

Surinam grass = test: Test B pre-/postemergence herbicide test; type: in vivo, Urochloa decumbens
In short: as §1

barnyardgrass [2] = test: Test B pre-/postemergence herbicide test; type: in vivo, Echinochloa crus-galli
In short: as §2

cocklebur = test: Test B pre-/postemergence herbicide test; type: in vivo, Xanthium strumarium
In short: as §2

lambsquarters = test: Test B pre-/postemergence herbicide test; type: in vivo, Chenopodium album
In short: as §1

blackgrass = test: Test B postemergence herbicide test; type: in vivo, Alopecurus myosuroides; conditions: scale 0 (no effect) to 100 (complete control)
In short: as §3

ducksalad = test: Test B flooded paddy test; type: in vivo, Heteranthera limosa; conditions: 1000 g ai/ha, visual rating, scale 0 to 100 (0 no effect, 100 complete control), 13 to 15 days
In short: as §3

wheat = test: Test B postemergence herbicide test; type: in vivo, Triticum aestivum; parameters: key to Wheat plant response rating: 0 = no effect, 100 = complete control; conditions: scale 0 (no effect) to 100 (complete control)
In short: as §4

pigweed = test: Test B pre-/postemergence herbicide test; type: in vivo, Amaranthus retroflexus
In short: as §1

barnyardgrass [3] = test: Test B flooded paddy test; type: in vivo, Echinochloa crus-galli; conditions: 1000 g ai/ha, visual rating, scale 0 to 100 (0 no effect, 100 complete control), 13 to 15 days
In short: as §3

rice = test: Test B flooded paddy test; type: in vivo, Oryza sativa; conditions: 1000 g ai/ha, visual rating, scale 0 to 100 (0 no effect, 100 complete control), 13 to 15 days
In short: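 Paddy species grown to the 2-leaf stage under flooding; blackgrass sprayed postemergence at 2–18 cm (1- to 4-leaf stage). Plants kept in a greenhouse for 13 to 15 days, then visually rated against controls on 0 (no effect) to 100 (complete control).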

[4] = Postemergence, 500 g ai/ha, visual rating after 13 to 15 days, scale 0 (no effect) to 100 (complete control)
[5] = postemergence, 125 g ai/ha, visual rating, scale 0 (no effect) to 100 (complete control)
[6] = preemergence, 125 g ai/ha, 0 to 100 scale, 0 is no effect, 100 is complete control
[7] = Preemergence, 500 g ai/ha, scale 0 to 100
[8] = Postemergence, 500 g ai/ha, visual rating after 13 to 15 days
[9] = postemergence, 125 g ai/ha, visual rating

CCCCOC(=O)c1cccc(NC(=O)c2cc(C(C)(C)C)nn2CC)c1 [Compound 86]
90: Plant response rating, Crabgrass, Large (large crabgrass; [4]) | Plant response rating, Lambsquarters (lambsquarters; [4])
0: Plant response rating, Velvetleaf (velvetleaf; [6]) | Plant response rating, Morningglory (morningglory; [6]) | Corn plant response rating (corn; [7]) | Plant response rating, Corn (corn; [6]) | Crabgrass, Large plant response rating (large crabgrass; [7]) | Plant response rating, Crabgrass, Large (large crabgrass; [6]) | Plant response rating, Surinam Grass (Surinam grass; [6]) | Barnyardgrass plant response rating (barnyardgrass [2]; [7]) | Plant response rating, Barnyardgrass (barnyardgrass [2]; [6]) | Cocklebur plant response rating (cocklebur; [7]) | Plant response rating, Cocklebur (cocklebur; [6]) | Plant response rating, Lambsquarters (lambsquarters; [6]) | Plant response rating, Pigweed (pigweed; [6])
50: Barnyardgrass plant response rating (barnyardgrass [2]; [5]) | Rice plant response rating (rice)
20: Corn plant response rating (corn; [5]) | Cocklebur plant response rating (cocklebur; [5]) | Plant response rating, Blackgrass (blackgrass; [8]) | Ducksalad plant response rating (ducksalad)
40: Plant response rating, Wheat (wheat; [8])
80: Plant response rating, Barnyardgrass (barnyardgrass [2]; [4]) | Lambsquarters plant response rating (lambsquarters; [5])
100: Plant response rating, Morningglory (morningglory; [4]) | Plant response rating, Surinam Grass (Surinam grass; [4]) | Plant response rating, Cocklebur (cocklebur; [4]) | Plant response rating, Pigweed (pigweed; [4]) | Pigweed plant response rating (pigweed; [5])
10: Blackgrass plant response rating (blackgrass; [9])
60: Velvetleaf plant response rating (velvetleaf; [5]) | Morningglory plant response rating (morningglory; [5]) | Crabgrass, Large plant response rating (large crabgrass; [5]) | Plant response rating, Oat, Wild (wild oat; [8])
70: Plant response rating, Velvetleaf (velvetleaf; [4]) | Sedge, Umbrella plant response rating [1] | Surinam Grass plant response rating (Surinam grass; [5])
30: Plant response rating, Corn (corn; [4]) | Oat, Wild plant response rating (wild oat; [9]) | Wheat plant response rating (wheat; [9]) | Barnyardgrass plant response rating (barnyardgrass [3])
